Entries after “also recorded” stand apart in the source; their conditions may differ.
Experiments:
[1] = Hematological, enzymatic and chemical blood analyses and weight change, mice with KHJJ mammary carcinomas (Examples 8-12, Table 2); type: in vivo, BALB/c mice; conditions: 244 μg/gbw; 17 hr to 4 d
Experimental: Female BALB/c mice (Taconic Farms, Germantown, N.Y.) (20-25 g) were implanted with either KHJJ or EMT-6 tumors. For KHJJ tumors, 1-3 mm^3 tumor fragments were implanted subcutaneously (s.c.) in the dorsal thorax of each mouse using an 18-gauge trocar. For EMT-6 tumors, 2.5×10^5 cells were implanted similarly using a 27-gauge needle. EMT-6 tumor cells were grown alternately in vivo and in vitro. Single-cell suspensions were prepared from mouse-grown tumors by trypsinization. These were grown in cell culture for several passages and then were frozen in 10% DMSO and stored in liquid nitrogen. Prior to implantation in mice, the cells were thawed and grown in tissue culture in Alpha-MEM with 10% FBS for several passages. […]
Levels of glucose [GLU], blood urea nitrogen [BUN], blood creatinine [BCR], alanine transaminase [ALT], aspartate transaminase [AST], alkaline phosphatase [ALP], total protein [TPR], albumin [ALB], and creatine phosphokinase [CPK] were determined in blood plasma using a Cobas Fara II microanalysis system. Blood platelets [PLT] and white blood cells [WBC] were counted using a Serono-Baker System 9000 automated hematology microanalyzer. […]

[2] = tested on: KHJJ mammary carcinomas; experiment: Boron biodistribution, mice with KHJJ mammary carcinomas (Examples 8-12, Table 2); parameters: species or system BALB/c mice; conditions: mouse, in vivo
Experimental: Female BALB/c mice (Taconic Farms, Germantown, N.Y.) (20-25 g) were implanted with either KHJJ or EMT-6 tumors. For KHJJ tumors, 1-3 mm^3 tumor fragments were implanted subcutaneously (s.c.) in the dorsal thorax of each mouse using an 18-gauge trocar. For EMT-6 tumors, 2.5×10^5 cells were implanted similarly using a 27-gauge needle. EMT-6 tumor cells were grown alternately in vivo and in vitro. Single-cell suspensions were prepared from mouse-grown tumors by trypsinization. These were grown in cell culture for several passages and then were frozen in 10% DMSO and stored in liquid nitrogen. Prior to implantation in mice, the cells were thawed and grown in tissue culture in Alpha-MEM with 10% FBS for several passages.
(§1) Under deep halothane anesthesia leading to euthanasia, right ventricular blood was collected in Microtainer (Becton-Dickinson, Rutherford, N.J.) tubes containing EDTA for hematological analyses and boron assays of whole blood and in Microtainer™ tubes containing lithium heparin for chemical analyses and enzyme assays of blood plasma. Tumor, brain, fat, muscle, and liver tissues were sampled at necropsy for boron analyses.
Direct current plasma-atomic emission spectroscopy [DCP-AES] (ARL/Fisons Model SS-7) was used (detection limit: 0.1 μg/ml). Samples (50-130 mg) were digested at 60° C. with sulfuric acid:nitric acid (1:1). […]

[3] = Toxicity testing of NiTCP, MnTCP and CuTCP in normal mice (Example 13, Table 3); type: in vivo, BALB/c mice; conditions: 4 days after last of 6 ip injections
Experimental: Levels of glucose [GLU], blood urea nitrogen [BUN], blood creatinine [BCR], alanine transaminase [ALT], aspartate transaminase [AST], alkaline phosphatase [ALP], total protein [TPR], albumin [ALB], and creatine phosphokinase [CPK] were determined in blood plasma using a Cobas Fara II microanalysis system. Blood platelets [PLT] and white blood cells [WBC] were counted using a Serono-Baker System 9000 automated hematology microanalyzer.
Compounds prepared as in Example 1B and 1C were formulated with 6% Cremophor EL [CRM] and 12% propylene glycol [PrG] in saline. Total doses of MnTCP and CuTCP of 174 and 223 μg/g body weight, respectively, were administered to normal BALB/c mice. Each mouse was given 6 intraperitoneal [ip] injections over a period of 32 hours. Mice were euthanized 4 days after the last injection and chemical, enzymatic and hematological analyses of their blood were compared to those of similar mice given NiTCP at a dose of 252 μg/g body weight.

[4] = tested on: EMT-6 mammary tumors; experiment: Experiment III: boron concentrations in tissues, mice bearing EMT-6 tumors (Table 8); parameters: species or system BALB/c mice; conditions: mouse, in vivo, ip, 183 mg/kg
Experimental: Lipophilic porphyrins 1, 2, 4, 5, and 6 were injected as emulsions in either 3% or 9% CRM and either 6% or 18% PRG with saline as previously described in Example 2 above. Water soluble porphyrins 3 and 7 were dissolved in saline. BPA was solubilized as a fructose complex.
Female BALB/c mice (from Taconic Farms, Germantown, N.Y.) (20-25 g) were implanted with either KHJJ or EMT-6 tumors according to the procedure described in Example 3A above.
as §1
In Experiment III, NiTCP and NiTCP-H were compared in mice bearing EMT-6 mammary tumors. Each porphyrin was administered via 6 i.p. injections over a period of 32 hours and the mice were euthanized 39 hours and 90 hours after the last injection.
Hematological, chemical and enzymatic tests were carried out as described in Example 3 above. Nonparametric statistical analyses were carried out using the Wilcoxon Two-Sample Test in accordance with procedures described in Slatkin, D.N., 1995. Boron analyses were conducted in accordance with the procedure described in Example 3 above. Fat and liver tissues were assayed for ^10 B by prompt-gamma spectroscopy as described in Fairchild, et al., 1986. These measurements were multiplied by 5.0 to give total boron concentrations due to the use of boron of natural isotope abundance in the syntheses of all boronated porphyrins reported.

[5] = total doses up to 272 μg/gbw, n>80 mice (Miura et al., 1996); cited from earlier work

For “Nickel Tetracarboranylphenylporphyrin [NiTCP]”, the “toxicity, in words” value [1] was “non-toxic; also recorded: only slight differences in the results of blood chemical analyses between the NiTCP groups and the solvent-only control groups; also recorded: Weight loss was only observed 17 hours after the last injection of NiTCP”, the “retention of boron in tumor, in words” value [2] was “the ability to retain the therapeutic amounts of boron in the tumor for several days” and the “time before average blood boron concentration falls below 1 ppm” value [2] was 4 days. The “toxicity / thrombocytopenia, in words” value [3] was “nontoxic”, the “Boron concentration, Blood” value ([4]; 39 h) was 2.8 (0.8-11.4) μg B/g and the “Boron concentration, Brain” value ([4]; 39 h) was 1.6 (1.0-2.5) μg B/g. The “Boron concentration, Liver” value ([4]; 39 h) was 201 (162-251) μg B/g, the “Boron concentration, Tumor” value ([4]; 39 h) was 40 (26-73) μg B/g and the “Boron concentration, Blood” value ([4]; 90 h) was 0.3 (0.1-0.3) μg B/g. The “Boron concentration, Brain” value ([4]; 90 h) was 4.2 (1.3-6.0) μg B/g, the “Boron concentration, Liver” value ([4]; 90 h) was 226 (176-284) μg B/g and the “mortality and toxicity, in words” value [5] was “no mortality (n>80) nor any substantial toxicity”.

— patent US5877165A, “Boronated porhyrins and methods for their use” (priority 1997, dated 1999)
